One experiment addresses T1, Adenosine receptor A3 (Homo sapiens, UniProt P0DMS8).
T1 sequence (P0DMS8 whole entry): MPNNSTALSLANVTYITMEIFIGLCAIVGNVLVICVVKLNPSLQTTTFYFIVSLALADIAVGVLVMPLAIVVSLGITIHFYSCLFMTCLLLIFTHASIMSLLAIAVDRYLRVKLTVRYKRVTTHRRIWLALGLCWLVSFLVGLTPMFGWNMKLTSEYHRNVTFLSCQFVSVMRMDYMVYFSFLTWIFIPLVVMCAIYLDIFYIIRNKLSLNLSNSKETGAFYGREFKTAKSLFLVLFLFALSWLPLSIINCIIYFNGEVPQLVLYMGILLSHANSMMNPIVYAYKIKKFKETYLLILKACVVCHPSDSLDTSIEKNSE
In words: Inhibitory concentration against human Adenosine A3 receptor mediated inhibition of cyclic AMP in transfected CHO cells. In kind it is functional, cell-based.

Experiment [1] deals with Adenosine receptor A2a (Rattus norvegicus) (UniProt P30543). The experiment is described as follows: Percent displacement of [3H]-CGS-21,680 from rat adenosine A2A receptor in rat brain homogenates at 1 uM. Background: In a radioligand displacement assay an active substance lowers the binding of a labelled ligand.
Sequence of Adenosine receptor A2a (Rattus norvegicus) (P30543 whole entry): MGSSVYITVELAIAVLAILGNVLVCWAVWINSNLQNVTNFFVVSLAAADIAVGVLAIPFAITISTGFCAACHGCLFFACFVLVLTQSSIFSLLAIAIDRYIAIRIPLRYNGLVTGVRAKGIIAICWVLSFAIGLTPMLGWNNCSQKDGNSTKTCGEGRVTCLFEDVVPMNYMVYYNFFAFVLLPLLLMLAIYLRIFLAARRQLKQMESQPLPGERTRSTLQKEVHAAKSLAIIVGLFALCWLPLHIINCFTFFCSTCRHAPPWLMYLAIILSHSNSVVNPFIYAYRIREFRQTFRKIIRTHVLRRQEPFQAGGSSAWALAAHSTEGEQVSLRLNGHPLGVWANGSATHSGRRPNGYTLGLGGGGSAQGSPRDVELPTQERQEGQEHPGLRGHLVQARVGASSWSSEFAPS
The target in the next experiment is T2, Adenosine receptor A1 (Rattus norvegicus, UniProt P25099).
T2 sequence (P25099 whole entry): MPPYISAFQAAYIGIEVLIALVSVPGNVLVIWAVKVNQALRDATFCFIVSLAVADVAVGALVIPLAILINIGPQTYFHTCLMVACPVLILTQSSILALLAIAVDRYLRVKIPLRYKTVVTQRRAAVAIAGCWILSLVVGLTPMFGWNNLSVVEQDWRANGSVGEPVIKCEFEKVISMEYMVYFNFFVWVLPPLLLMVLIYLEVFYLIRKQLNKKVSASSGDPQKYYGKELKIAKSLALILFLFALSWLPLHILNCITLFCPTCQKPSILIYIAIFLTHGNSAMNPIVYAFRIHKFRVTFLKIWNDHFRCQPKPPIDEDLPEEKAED
In words: Binding affinity for rat Adenosine A1 receptor in rat brain homogenates using [3H]N6-(R)-phenylisopropyladenosine.

The target in experiment [2] is Adenosine receptor A2a (Rattus norvegicus, UniProt P30543). The experiment is described as follows: Binding affinity for rat adenosine A2A receptor in rat brain homogenates using [3H]CGS-21680.
Sequence of Adenosine receptor A2a (Rattus norvegicus, UniProt P30543) (P30543 whole entry): as the sequence (P30543 whole entry) above
Experiment [3] addresses Adenosine receptor A2a (Homo sapiens, UniProt P29274). The experiment is described as follows: Binding affinity for human adenosine A2A receptor in CHO cells using [3H]CGS-21680. In kind it is cell-based.

A value given as a limit tells only on which side of the number the result lay.

Sequence of Adenosine receptor A2a (Homo sapiens, UniProt P29274) (P29274 whole entry): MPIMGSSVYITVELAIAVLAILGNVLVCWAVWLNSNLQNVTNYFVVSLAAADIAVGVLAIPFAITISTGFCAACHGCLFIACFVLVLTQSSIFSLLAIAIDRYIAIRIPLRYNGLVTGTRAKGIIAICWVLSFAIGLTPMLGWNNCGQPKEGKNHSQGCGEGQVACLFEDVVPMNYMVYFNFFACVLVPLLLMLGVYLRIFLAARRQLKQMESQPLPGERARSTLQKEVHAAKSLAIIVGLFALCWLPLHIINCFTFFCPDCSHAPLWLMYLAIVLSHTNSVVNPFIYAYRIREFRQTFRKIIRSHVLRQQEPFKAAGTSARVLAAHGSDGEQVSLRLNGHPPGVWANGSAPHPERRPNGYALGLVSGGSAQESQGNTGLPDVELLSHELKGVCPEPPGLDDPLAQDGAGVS

The term IC50 denotes the point on the concentration scale where inhibition reaches its midpoint. Low readings indicate higher potency, high ones lower potency. The molecule `CNC(=O)[C@H]1S[C@@H](n2cnc3c(N)nc(Cl)nc32)[C@H](O)[C@@H]1O` came in with an IC50 on Adenosine receptor A3 of 0.001 µM. Further, the Displacement in experiment [1] is < 10%.

By Ki is commonly meant the equilibrium dissociation constant of an inhibitor or competing ligand from its target. Low readings indicate a stronger hold on the target, high ones a looser hold on the target. As for `CNC(=O)[C@H]1S[C@@H](n2cnc3c(NCc4cccc(I)c4)nc(Cl)nc32)[C@H](O)[C@@H]1O`, the results for the Ki at Adenosine receptor A1, on Adenosine receptor A2a [2] and at Adenosine receptor A2a [3] were 0.14 µM, 0.348 µM and 0.223 µM, respectively.
